Reference: US20240315992A1, “AMINOXY ACID-BASED ANTIBACTERIAL COMPOUNDS AND METHODS THEREOF” (The University of Hong Kong, priority 2023, published 2024)
Values after ≈ are worked out from the molar mass of the structure shown.

Assays:
NIH3T3 cells = experiment: Mammalian cell cytotoxicity assay (MTT), NIH3T3; type: cell-based; conditions: for IC50: Mus musculus, NIH3T3, MTT assay, 24 hours, read-out: IC50, toxicity towards mammalian cells NIH3T3; for toxicity against mammalian cell NIH3T3: at 16 folded MIC (50 μM compound 8, 12.5 μM compound 35)
Experimental: NIH3T3 cells were cultured in DMEM supplemented with 10% fetal bovine serum (FBS), 100 U/ml penicillin and 0.1 mg/ml streptomycin. Cells were grown in treated culture flasks at 37° C. in a 5% CO2 humidified incubator and passaged every 2-3 days.
In the treated culture dish, cells were washed by PBS and then trypsinized. DMEM was added to quench the reaction. Cells were centrifuged and resuspended into fresh DMEM. Cells were then seeded in 96-well microtitre plate (100 μL, 5000 cells per well) for 24 hours before addition of compounds. The compounds were two-fold serial diluted by DMSO in a DMSO-compatible 96-well plate. 1 μL of compound in DMSO is transferred into the 96-well microtitre preparation plate containing 100 μL DMEM medium. The medium in culture plate was removed and compounds in preparation plate were transferred to culture plate. Equal volume of DMSO was used as negative control.
After 24 hours of incubation of cells, cell viability was measured by MTT assay. In MTT assay, 20 μL 5 mg/mL MTT solution in PBS was added to cell medium and cultured for 3 hours. The medium was then removed and 50 μL DMSO was added and cultured for 10 minutes. Absorbance at 595 nm was measured spectrophotometrically (Beckman Coulter DTX 880 Multimode Detector) and normalized to DMSO group. Biological replicates were performed.

[1] = tested on: Staphylococcus aureus strain USA300-LAC; experiment: Non-lethal bacteremia model, bacteria loads in organs; type: in vivo, Balb/c mice; conditions: 10 mg/kg/day intraperitoneal, 4 days
Experimental: FIG. 9 are the bar graphs showing compound 8 and compound 35 reduce bacteria loads in different organs of the mice infected by Staphylococcus aureus. Grubb's test was performed to test for outliers. Statistical analysis was performed with two-sided paired t test. (*p<0.05).
Staphylococcus aureus strain USA300-LAC were cultured to the early exponential phase of growth, washed twice with sterile phosphate-buffered saline solution (PBS), and resuspended in PBS at 5×10^6 CFU/200 μL for non-lethal bacteremia model. The female Balb/c mice, 6-8 weeks, were infected intravenously (i.v.) through the tail vein with Staphylococcus aureus and randomized into three groups (N=14 for vehicle; N=12 for compound 8 and compound 35 respectively). One hour after infection, mice received intraperitoneal injections of compound 8 or compound 35 (10 mg/kg/day) or an injection of buffer (PBS with 2.5% DMSO and 2% Tween-80) as the control. The compound and injection buffer treatments were performed twice per day at 12-h intervals. The challenged mice were monitored for 4 days, at which point all the remaining mice were sacrificed. The CFU of S. aureus were determined in heart, liver, kidney and lung by plating in series dilution. Grubb's test was performed to test for outliers. Statistical analysis was performed with two-sided paired t test. (*p<0.05).

[2] = tested on: Staphylococcus aureus Mu3 cytoplasmic calcium; experiment: Calcium influx monitored by Fluo-4-AM; type: cell-based; conditions: Fluo-4-AM fluorescence
Experimental: FIG. 12 is a line graph showing compound 8 can induce calcium influx into cytoplasm. The fluorescence of the Fluo-4-AM loaded in Staphylococcus aureus Mu3 was monitored for 10 minutes. The average of fluorescence in this period was assigned as F0. At t=10 minutes, different concentration of compound 8 was added to bacteria medium and then the fluorescence was further monitored for 40 minutes. Calcium ion transporter ionomycin was used as the positive control. The fluorescence Ft was normalized to initial fluorescence F0. Data represented the mean of biological triplicates.
Briefly, an overnight culture of MRSA Mu3 was sub-cultured 1:100 in fresh CAMH and regrown to exponential phase. The bacteria were washed twice and then re-suspended in PBS (OD595=0.5) containing 5 μM Fluo-4-AM. The bacteria were further incubated at 37° C. in dark for 2 hours before they were washed twice and resuspended into PBS containing 0.5 mM calcium chloride. 200 μL bacteria culture were then added into 96-well plate for each well. The plate was then pre-warmed and the fluorescence was monitored for 10 minutes for background measurement (excitation wavelength: 485 nm, emission wavelength: 535 nm). Fluorescence signal was recorded by Beckman Coulter DTX 880 Multimode Detector. Compounds were then added to 96-well plate and the fluorescence was further monitored for 5 minutes. […]

B. subtilis WT168 = experiment: MIC by CLSI broth micro-dilution, B. subtilis WT168; type: cell-based; conditions: Bacillus subtilis, read-out: Minimum inhibitory concentration
Experimental: Aminoxy acids were synthesized by the standard peptide coupling procedures. Minimum inhibitory concentration was determined using CLSI broth micro-dilution method in 96-wells microtitre plates. Minimum inhibitory concentration is defined as the lowest concentration of the compound that inhibits visible growth of the bacteria. All experiments were performed three times. 24 compounds including aminoxy acid monomers and dipeptides have been identified to show toxicity against multidrug resistant Staphylococcus aureus Mu3 and summarized in Table 1. The minimum inhibitory concentration of compound 8 and compound 35 on other gram-positive bacteria was also evaluated and summarized in Table 2. […] As shown in FIGS. 3A-3B there are no observable hemolysis for compound 8 and compound 35 towards human red blood cell.
Bacteria were streaked from the glycerol stock into BHI agar and were incubated overnight. Single colony was picked for the overnight culture in cation-adjusted Mueller Hinton broth (CAMH), LB or BHI. The overnight culture was sub-cultured and regrew to exponential phase for the experiment.
MIC was determined by CLSI broth micro-dilution method in 96-wells microtitre plates. […] Optical density was recorded by DTX 880 multimode detector (Beckman Coulter, California, US). […]

SMILES | IC50 (NIH3T3 cells) [µM] | toxicity against mammalian cell NIH3T3 (NIH3T3 cells) | bacteria load in heart [1] | bacteria load in lung [1] | calcium influx into cytoplasm [2] | MIC (B. subtilis WT168) [µM]
CC(C)C[C@H](ONC(=O)[C@@H](COCc1ccccc1)ONC(=O)c1cc(C(F)(F)F)cc(C(F)(F)F)c1)C(=O)Nc1ccccc1 [Compound 8] | > 50 | minimal toxicity | can reduce the bacteria load | can reduce the bacteria load | can induce calcium influx into cytoplasm in concentration dependent manner | 3.13 (≈ 2.05 µg/mL)
CC(C)C[C@H](ONC(=O)[C@@H](COCc1ccccc1)ONC(=O)c1cc(C(F)(F)F)cc(C(F)(F)F)c1)C(=O)Nc1ccc2c(c1)OC(F)(F)O2 [Compound 35] | > 50 | minimal toxicity |  |  |  | 1.56 (≈ 1.15 µg/mL)
